Read-outs that look alike come from different tables or passages of the source.
Assays:
Format in all cases: in vivo, rat
Sprague Dawley rats = assay: Hot plate test, topical application, paw withdrawal latency; conditions: dose (%): Ibuprofen 5, Capsaicin 0.5, Diclofenac 1, others 5
Excerpt: Repeated application of anti-inflammatory compounds or extracts topically at the site of thermal contact (noxious stimulus) may cause desensitization of the peripheral afferent pain receptors to produce a delay in response time. A longer change in reaction time could be interpreted as an anti-nociceptive effect of the applied compound. To evaluate whether prepared plant extracts and compositions could provide anti-nociceptive activity, rats received orally-active anti-inflammatory extracts formulated in 2% Aloe vera gel at 5% concentration topically on their hind paws. The applied preparations on each paw were massaged at least 60 times in a circular motion into the skin until the applied content appeared visually absorbed. The procedure was repeated 3 times, every 30 minutes, before placing the animals on a preheated hot plate set to 53° C. The paw withdrawal latency was calculated as the time elapsed from the initial placement of the rat onto the hotplate to the withdrawal (or licking or shaking) of the hind paw in response to the thermal stimulus. Animals were immediately removed when this response was observed.
The anti-pain activity of medicinal plant extracts was tested on a hot plate set at 53° C. Test materials at 5% concentrations were topically applied at 20 μl/paw to the hind paws of both right and left paws of Sprague Dawley rats (n=10 per group). Applications of these extracts were carried out every 30 minutes for a total of 90 minutes. Within these 90 minutes, rats received a total of 60 μl/paw of the test article per rat. At 5% concentration, each rat received 3 mg/paw of the test articles. Due to the solubility characteristics of the compounds, two types of vehicles, V1=Dimethyl sulfoxide (DMSO)+propylene glycol (PG)+Aloe (2%), and V2=DMSO+OIL+PG, were used. Percent changes and P-values for statistical significance were determined using respective vehicles for each test material. The vehicle used for each material has been indicated in the parenthesis next to the test material. […] These increases in anti-pain activity were statistically significant. […] This percent change was statistically significant when compared to its respective vehicle.

IL-6 = assay: MIA-induced OA rats, serum IL-6; conditions: 10 mg/kg
Method: Treatment started a week before MIA injection. […] On the induction day, isoflurane (Lot #B66H15A, Piramal Enterprise Ltd. Andhra Pradesh, India) anesthetized rats were injected with 0.8 mg of MIA (Lot #A0352046, Acros Organics, New Jersey, USA) in 50 μL saline solution into the intra-articular pocket of left femorotibial (knee) joint using 26 G needle an hour after treatment. Normal control rats were injected with an equal volume of saline. […] Body weights were measured once a week to calculate the respective weekly dosage of each group. […] The fixed specimens were then decalcified with Calci-Clear Rapid for 1 and a half days and embedded in paraffin. […] The histological analysis was conducted by a certified Pathologist at Nationwide Histology.

MIA-induced OA rats [1] = assay: MIA-induced OA rats, histopathology (modified Mankin); conditions: 10 mg/kg
Method: (§1) Treatment started a week before MIA injection. Animals were randomized into five groups of 10 rats per group as G1=normal, G2=vehicle (0.5% CMC-Na solution), G3=Diclofenac (10 mg/kg, Lot #W08B043, Ward Hill, Mass.), G4=AMK (100 mg/kg) and G5=AMK (300 mg/kg), were orally gavaged with respective treatment. On the induction day, isoflurane (Lot #B66H15A, Piramal Enterprise Ltd. Andhra Pradesh, India) anesthetized rats were injected with 0.8 mg of MIA (Lot #A0352046, Acros Organics, New Jersey, USA) in 50 μL saline solution into the intra-articular pocket of left femorotibial (knee) joint using 26 G needle an hour after treatment. Normal control rats were injected with an equal volume of saline. Paw withdrawal thresholds as a result of constant pressure applied to the affected joint as a measure of pain sensitivity were taken once a week using Randall-Salitto Anesthesiometer (IITC, USA) and treatment lasted for 6 weeks. Body weights were measured once a week to calculate the respective weekly dosage of each group. Urine was collected at the end of study using metabolic cages. Blood samples were collected to isolate serum for biomarker analysis. At necropsy, animals were asphyxiated with CO2 and the femorotibial joint was carefully dissected out, fixed in 10% buffered formalin and sent to Nationwide Histology (Veradale, Wash., USA) for further histopathology analysis. The fixed specimens were then decalcified with Calci-Clear Rapid for 1 and a half days and embedded in paraffin. Standardized […] serial sections were obtained at the medial and lateral mid-condylar level in the sagittal plane and were stained with hematoxylin and eosin (HE) and Safranin O-fast green to enable evaluation of proteoglycan content. A modified Mankin system (Mankin et al., 1981) was used to score structural and cellular alterations of articular components as indications of disease progression and/or treatment efficacy. The histological analysis was conducted by a certified Pathologist at Nationwide Histology.

MIA-induced OA rats [2] = assay: MIA-induced OA rats, pain sensitivity (paw withdrawal threshold, Randall-Salitto); conditions: 10 mg/kg oral; for inhibition at 10 mg/kg: Rattus norvegicus, po, read-out: Knee compression sensitivity, percent inhibition against vehicle treated MIA rats
Excerpt: The MIA-induced OA disease model in rats is a standardized model most frequently used to mimic human OA (Lee et al., 2014). The model involves inoculation of MIA into a femorotibial joint pocket that induces pain responses in the ipsilateral limb accompanied by progressive cartilage degradation. Intra-articular injection of MIA disrupts chondrocyte glycolysis by inhibiting […] and results in chondrocyte death, neovascularization, subchondral bone necrosis and collapse, as well as inflammation (Guzman et al., 2003). These phenotypic characteristics make the model very attractive to evaluate compounds for their anti-inflammatory, analgesic and/or potential disease-modifying activities as it shares similar disease pathology to the human OA. As a result, we selected this validated in vivo model to investigate the effect of AMK in mitigating pain sensitivity, regulating the phenotype of joint tissue and maintaining articular structural integrity after being administered orally for 6 weeks.
as §1

O=C(O)Cc1ccccc1Nc1c(Cl)cccc1Cl [Diclofenac]
Paw withdrawal threshold (latency) Mean ± SD (Sprague Dawley rats; hot plate 53° C., topical, vehicle V1 (DMSO+PG+Aloe 2%), in s (unit assumed)): 6.93 ± 1.50
% Change (Sprague Dawley rats; vs vehicle V1, negative = increased paw withdrawal latency): 2.8%
IL-6 (IL-6): 114.2 ± 5.5 pg/mL
inhibition in catabolic inflammation and infiltration of inflammatory cells (MIA-induced OA rats [1]; MIA rats): 42.8%
reduction in matrix GAG loss (MIA-induced OA rats [1]; MIA rats): 34.6%
reduction of overall structural abnormalities (MIA-induced OA rats [1]; MIA rats): 41.1%
Bone Erosion (Mean ± SE) (MIA-induced OA rats [1]; modified Mankin score): 3.08 ± 0.50
Cartilage destruction (Mean ± SE) (MIA-induced OA rats [1]; modified Mankin score): 4.00 ± 0.76
GAG Loss (Mean ± SE) (MIA-induced OA rats [1]; modified Mankin score): 3.08 ± 0.57
Inflammation (Mean ± SE) (MIA-induced OA rats [1]; modified Mankin score): 1.31 ± 0.22
Bone Erosion, reduction (value in parenthesis) (MIA-induced OA rats [1]; vs MIA+ vehicle): (40.8) %
Cartilage destruction, reduction (value in parenthesis) (MIA-induced OA rats [1]; vs MIA+ vehicle): (41.10%
GAG Loss, reduction (value in parenthesis) (MIA-induced OA rats [1]; vs MIA+ vehicle): (34.6) %
Inflammation, reduction (value in parenthesis) (MIA-induced OA rats [1]; vs MIA+ vehicle): (42.8) %
inhibition at 10 mg/kg (MIA-induced OA rats [2]; Wk-0): 0.3%
inhibition at 10 mg/kg (MIA-induced OA rats [2]; Wk-1): 19.7%
inhibition at 10 mg/kg (MIA-induced OA rats [2]; Wk-2): 24.1%
inhibition at 10 mg/kg (MIA-induced OA rats [2]; Wk-3): 28.3%
inhibition at 10 mg/kg (MIA-induced OA rats [2]; Wk-4): 30.8%
inhibition at 10 mg/kg (MIA-induced OA rats [2]; wk-5): 31.1%
Knee compression sensitivity (Mean ± SD) (MIA-induced OA rats [2]; Wk-0): 243.1 ± 2.4
Knee compression sensitivity (Mean ± SD) (MIA-induced OA rats [2]; Wk-1): 190.9 ± 2.3
Knee compression sensitivity (Mean ± SD) (MIA-induced OA rats [2]; Wk-2): 190.5 ± 2.6
Knee compression sensitivity (Mean ± SD) (MIA-induced OA rats [2]; Wk-3): 183.8 ± 2.3
Knee compression sensitivity (Mean ± SD) (MIA-induced OA rats [2]; Wk-4): 183.3 ± 1.7
Knee compression sensitivity (Mean ± SD) (MIA-induced OA rats [2]; wk-5): 182.0 ± 1.1

Source: patent US20220000964A1, “Compositions and Methods for Regulating Homeostasis of Chondrocytes, Extracellular Matrix, Articular Cartilage, and Phenotype of Arthritis” (Unigen, Inc., priority 2020, published 2022)
